This is an account of results in patent US20010049372A1, “Antiviral nucleoside analogues” (BioChem Pharma Inc., priority 1998, published 2001).

Like-named read-outs stand apart in the source and are kept apart here.

In general, half-life refers to how long it takes for the measured level to halve. A lower half-life goes with fast loss. A word on the AUC: it is the area under the concentration-time curve, a measure of exposure. In general, Cmax refers to the highest concentration seen after dosing.

The nature of this data set: Preliminary pharmacokinetic study in male adult rats. Type of data set: in vivo. As to conditions: rat; for half-life / AUC / Cmax: male, plasma; for AUC: read-out: AUC; for Cmax: read-out: Cmax. As for the experimental part:
The bioavailability of the compounds were evaluated in male adult rats dosed intravenously through the tail vein (5 mg/kg) and orally (20 mg/kg). The plasma samples were collected at 2, 5, 15, 30, 60, 90, 120 and 240 minutes after intravenous dosing and 5, 15, 30, 60, 90, 120, 240 and 360 minutes after oral dosing.
Blood samples (1 ml) were collected from the rat tails into a vacutainer containing EDTA (3 ml) for both iv and po administrations. Plasma samples were prepared by centrifugation at 2000 ×g for 15 minutes at 4° C.
Plasma samples (diluted to 1 ml with water) were loaded onto the Abselut Nexus sorbent (# 1210-3100 ) and drawn through under low vacuum (approximately 5′′ Hg). One milliliter of deionized water was added to the sorbent and drawn through under vacuum. The extraction column was dried for 1 minute using a high vacuum (>10′′ Hg). One milliliter of methanol was added to the Abselut Nexus column and the eluent was collected at 1-2 ml/min. The eluent was evaporated to dryness using a Speed Vac, and the samples were reconstituted in 120 μl H2O; 100 μl was used for injection.

`Nc1nc(NC2CC2)c2ncn([C@H]3CO[C@@H](CO)O3)c2n1` [Compound A (-), (−)-(2R,4R)-2-hydroxymethyl-4-(2′-amino-6′-cyclopropylamino-purine-9′-yl)-1,3-dioxolane]: where the note is “iv 5 mg/kg”, the half-life was 22.2 min, the AUC came out at 4740 ng·h/mL and the Cmax turned out to be 14300 ng/mL. Also, for the setting “oral 20 mg/kg”, the half-life is 38.4 min, the AUC was 8640 ng·h/mL, the Cmax was 4200 ng/mL and the “Oral BA (%)” value was 45.56%.
